Measured values: publication PMC10609152, “Synthesis, Computational, and Anticancer In Vitro Investigations of Aminobenzylnaphthols Derived from 2-Naphtol, Benzaldehydes, and α-Aminoacids via the Betti Reaction” (Molecules, 2023)
Read-outs that look alike come from different tables or passages of the source.

What was measured:
BxPC-3 cells [1] = test: Annexin V-FITC/PI flow cytometry, BxPC-3; type: cell-based; conditions: Annexin V-FITC, BxPC-3, IC50 concentration, 72 h
Method: (§1) The Annexin V-FITC Apoptosis Detection Kit was utilized to assess the induction of apoptosis following 72 h incubation with the tested MMZ compounds. BxPC-3 and HT-29 cells were plated at a density of 4 × 10^5 cells in 6-well plates. After 24 h, the cells were exposed to IC50 concentrations of MMZ-45AA and […], determined in the MTT assay. The experimental setup included a vehicle control with a final solvent concentration of less than 0.5% v/v DMSO, and cells treated with 2 µM SN-38 (the active metabolite of irinotecan) as a positive control. The cells were then incubated for an additional 72 h at 37 °C with 5% CO2.
(§2) Following the exposure period, the cells were trypsinized, transferred to cytometric tubes, and allowed to incubate for 40 min. Subsequently, they were centrifuged at 1400 rpm for 10 min at 4 °C. The supernatant was then removed, and the cell pellet was diluted in 1 mL PBS. The remaining steps were carried out according to the instructions provided by the manufacturer of the Annexin V-FITC Apoptosis Detection Kit. The results reported in this study were obtained from three independent experiments

HT-29 cells [2] = test: MTT assay, HT-29; type: cell-based; conditions: Homo sapiens
From the text: (§3) The MTT assay, also known as the 3-(4,5-dimethylthiazol-2-yl)-2,5-diphenyltetrazolium bromide assay, is a colorimetric assay used in biological and biomedical research to determine cell viability and proliferation. The MTT assay works on the assumption that live cells with active metabolism convert MTT into formazan crystals. These crystals are insoluble; however, they can be dissolved in an organic solvent such as DMSO to produce a colorful solution. The color intensity is proportional to the number of viable cells present in the culture.
(§4) BxPC-3, HT-29, and WI-38 cells were seeded on 96-well plates at a density of approximately 8–10 × 10^3 cells per 100 µL medium/well. Cells were allowed to grow for 24 h in controlled conditions (37 °C; 5% CO2). […] The experimental design included nontreated controls and blanks (wells without cells). Following 24 or 72 h of culture with the investigated compounds, 20 μL of MTT tetrazolium salt (5 mg/mL in PBS) was added to each well, and the plates were incubated for 3 h in a humidified environment (37 °C; 5% CO2). The solutions were withdrawn after incubation, and 100 μL of DMSO was added to dissolve the formazan complexes. Afterward, a spectrophotometer (microplate reader Power Wave XS BioTek Instruments, Inc., Winooski, VT, USA) reading at 570 nm was conducted. The experiments were carried out in duplicates.
(§5) GraphPad Prism 7 software was used to calculate the concentration of an MMZ compound reflecting a 50% growth inhibition (IC50). IC50 is defined as a concentration of tested compound that leads to a reduction in cell pool viability by 50% compared to the negative control (accepted as 100%). % cell viability=Absorbance value of treated cells−Absorbance value of blank/(Absorbance value of untreated cells−Absorbance value of blank)×100%

HT-29 cells [3] = test: Annexin V-FITC/PI flow cytometry, HT-29; type: cell-based; conditions: Annexin V-FITC, HT-29, IC50 concentration, 72 h
Method: as §1, §2

BxPC-3 cells [4] = test: MTT assay, BxPC-3; type: cell-based; conditions: Homo sapiens
From the text: as §3, §4, §5

HT-29 cells [5] = test: AO/EB double staining, HT-29; type: cell-based; conditions: HT-29, IC50 concentration, 72 h
Method: (§6) BxPC-3 and HT-29 cells were plated at a density of 5 × 10^4 cells per well in 12-well plates. After 24 h, the cells were treated with MMZ-45AA and MMZ-140C at concentrations corresponding to their IC50 values obtained from the MTT assay. The cells were exposed to the compounds for 72 h. Following the incubation period, the cells were treated with a mixture of fluorochromes (100 µM AO/EB in a 1:1 ratio, v/v) for 5 min at 37 °C in the absence of light.
(§7) The staining technique allowed for the differentiation of viable, apoptotic, and necrotic cells based on their varying uptake of fluorescent DNA-binding dyes and the degree of chromatin condensation in the stained nuclei. A fluorescence microscope (Olympus BX60 F5, Olympus Optical Co., Ltd., Nagano, Japan) with an excitation wavelength of 360 nm was used to analyze the cells. The results were obtained from three independent experiments.

BxPC-3 cells [6] = test: AO/EB double staining, BxPC-3; type: cell-based; conditions: BxPC-3, IC50 concentration, 72 h
Method: as §6, §7

A549 = tested on: A549; parameters: method as in doi:10.31083/j.jmcm.2019.02.7181; conditions: cited from earlier work
[7] = MTT cell viability, WI-38 normal fibroblasts; type: cell-based; conditions: human, WI-38 normal fibroblast cells, read-out: % cell viability ± SD; for viability at 72 h: WI-38, 72 h
Method: as §4, §5

T47D = tested on: T47D; parameters: method as in doi:10.31083/j.jmcm.2019.02.7181; conditions: cited from earlier work
HeLa = tested on: HeLa; parameters: method as in doi:10.31083/j.jmcm.2019.02.7181; conditions: cited from earlier work
HBL100 = tested on: HBL100; parameters: method as in doi:10.31083/j.jmcm.2019.02.7181; conditions: cited from earlier work
SW1573 = tested on: SW1573; parameters: method as in doi:10.31083/j.jmcm.2019.02.7181; conditions: cited from earlier work
[8] = HT-29, 24-h MTT, independent experiment 1, read-out: IC50(1)
[9] = HT-29, 24-h MTT, independent experiment 2, read-out: IC50(2)
[10] = HT-29, 24-h MTT, read-out: Mean IC50 ± SD
[11] = HT-29, 72-h MTT, independent experiment 1, read-out: IC50(1)
[12] = HT-29, 72-h MTT, independent experiment 2, read-out: IC50(2)
[13] = HT-29, 72-h MTT, read-out: Mean IC50 ± SD
[14] = BxPC-3, 24-h MTT, independent experiment 1, read-out: IC50(1)
[15] = BxPC-3, 24-h MTT, independent experiment 2, read-out: IC50(2)
[16] = BxPC-3, 24-h MTT, read-out: Mean IC50 ± SD
[17] = BxPC-3, 72-h MTT, independent experiment 1, read-out: IC50(1)
[18] = BxPC-3, 72-h MTT, independent experiment 2, read-out: IC50(2)
[19] = BxPC-3, 72-h MTT, read-out: Mean IC50 ± SD

COC(=O)[C@H](Cc1ccccc1)N[C@@H](c1ccccc1)c1c(O)ccc2ccccc12 (mixture of isomers) [MMZ-45AA, (S,S) and (R,R)-methyl ((2-hydroxynaphthalen-1-yl)(phenyl)methyl)-L-phenylalaninate]
% of apoptotic cells (BxPC-3 cells [1]): 38.7 ± 5.43%
IC50 (HT-29 cells [2]; [8]): 40.3 µM
IC50 (HT-29 cells [2]; [9]): 48.1 µM
IC50 (HT-29 cells [2]; [10]): 44.2 ± 5.49 µM
IC50 (HT-29 cells [2]; [11]): 12.2 µM
IC50 (HT-29 cells [2]; [12]): 11.9 µM
IC50 (HT-29 cells [2]; [13]): 12.1 ± 0.247 µM
% of apoptotic cells (HT-29 cells [3]): 24.23 ± 1.1%
IC50 (BxPC-3 cells [4]; [14]): 58.1 µM
IC50 (BxPC-3 cells [4]; [15]): 38 µM
IC50 (BxPC-3 cells [4]; [16]): 48 ± 14.2 µM
IC50 (BxPC-3 cells [4]; [17]): 12.1 µM
IC50 (BxPC-3 cells [4]; [18]): 14.4 µM
IC50 (BxPC-3 cells [4]; [19]): 13.3 µM
% of apoptotic cells (HT-29 cells [5]): 15.93 ± 3%
% of apoptotic cells (BxPC-3 cells [6]): 21.9 ± 3.4%

N.N.[Cl][Pt][Cl] [cisplatin]
GI50 (A549): 4.9 µM

COC(=O)[C@@H]1CCCN1[C@@H](c1ccccc1)c1c(O)ccc2ccccc12 (mixture of isomers) [MMZ-140C, (S,S) and (R,R)-methyl ((2-hydroxynaphthalen-1-yl)(phenyl)methyl)-L-prolinate]
% of apoptotic cells (BxPC-3 cells [1]): 33.1 ± 1.12%
IC50 (HT-29 cells [2]; [8]): 35.5 µM
IC50 (HT-29 cells [2]; [9]): 40 µM
IC50 (HT-29 cells [2]; [10]): 37.8 ± 3.2 µM
IC50 (HT-29 cells [2]; [11]): 9.01 µM
IC50 (HT-29 cells [2]; [12]): 14.1 µM
IC50 (HT-29 cells [2]; [13]): 11.6 µM
% of apoptotic cells (HT-29 cells [3]): 15.13 ± 1%
viability at 24 h ([7]; WI-38, 24 h, compound at IC50 concentration obtained for HT-29 cells): 82.9 ± 2.06%
viability at 72 h ([7]; compound at IC50 concentration estimated for BxPC-3 cells): 82.3 ± 6.96%
viability at 72 h ([7]; compound at IC50 concentration obtained for HT-29 cells): 84.2 ± 2.56%
IC50 (BxPC-3 cells [4]; [14]): 23.5 µM
IC50 (BxPC-3 cells [4]; [15]): 36.8 µM
IC50 (BxPC-3 cells [4]; [16]): 30.2 ± 9.39 µM
IC50 (BxPC-3 cells [4]; [17]): 31.7 µM
IC50 (BxPC-3 cells [4]; [18]): 33.2 µM
IC50 (BxPC-3 cells [4]; [19]): 32.4 ± 1.09 µM
% of apoptotic cells (HT-29 cells [5]): 11.73 ± 0.38%
% of apoptotic cells (BxPC-3 cells [6]): No statistically significant changes

N#Cc1ccc(C(NCc2ccccc2)c2cccc3ccccc23)cc1 (centres unmarked) [compound 14t]
GI50 (T47D): 8.4 µM
GI50 (HeLa): 4.1 µM
GI50 (HBL100): 5 µM
GI50 (SW1573): 6.3 µM

Brc1ccc(C(c2cccc3ccccc23)N2CCCC2)cc1 (centres unmarked) [compound 14j]
GI50 (A549): 7.9 µM
